Values of other authors, collected in EP4729553A1, “BLOCK POLYMER, AND COLORING MATERIAL DISPERSION AND INK COMPOSITION USING SAME” (Mikuni Shikiso Kabushiki Kaisha, priority 2023, dated 2024).

Conditions: monomer, trade product data

Q: For “ethoxylated o-phenylphenol acrylate [A-LEN10]”, which LogP is on record?
A: 3.98
